Target: T1, P. denitrificans complex I (Pd-CI, Pd-CI-ND), ubiquinone-binding site (Paracoccus denitrificans, UniProt A1B487+A1B495+A1B497)
T1 construct: gene nuoH; native 18-subunit complex from P. denitrificans membranes, His6 tag on Nqo5 (NDUFS3), DDM-purified, reconstituted in MSP2N2 phospholipid nanodiscs; NDUFS2-Arg65 dimethylated; ND3 N-formylMet; with NADH-quinone oxidoreductase subunit 1 (subunit F); NADH-quinone oxidoreductase subunit 2 (subunit E); NADH-quinone oxidoreductase subunit 3 (subunit G); NADH-quinone oxidoreductase subunit 5 (subunit C); NADH-quinone oxidoreductase subunit 7 (subunit A); NADH-quinone oxidoreductase subunit 9 (subunit I); NADH-quinone oxidoreductase subunit 10 (subunit J); NADH-quinone oxidoreductase subunit 11 (subunit K); NADH-quinone oxidoreductase subunit 12 (subunit L); NADH-quinone oxidoreductase subunit 13 (subunit M); NADH-quinone oxidoreductase subunit 14 (subunit N); NADH dehydrogenase [ubiquinone] iron-sulfur protein 4 homologue; NADH dehydrogenase [ubiquinone] iron-sulfur protein 6 homologue; NADH dehydrogenase [ubiquinone]; 1 alpha subcomplex subunit 12 homologue; Protein-L-isoaspartate O-methyltransferase
Assay: cryo-EM structure of the complex, […] Å
Conditions: closed resting state, oxidised; headgroup partially inserted near ND1-Arg38, Trp41, Met244, Lys295 and NDUFS7-Arg77; nanodiscs with added Q10

T1 sequence (A1B497 whole entry): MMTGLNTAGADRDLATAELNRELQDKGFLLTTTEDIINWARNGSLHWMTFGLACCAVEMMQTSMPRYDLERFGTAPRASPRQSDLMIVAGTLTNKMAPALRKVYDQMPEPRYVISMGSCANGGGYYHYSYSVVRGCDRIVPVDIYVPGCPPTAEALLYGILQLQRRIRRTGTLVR
T1 sequence (A1B495 whole entry): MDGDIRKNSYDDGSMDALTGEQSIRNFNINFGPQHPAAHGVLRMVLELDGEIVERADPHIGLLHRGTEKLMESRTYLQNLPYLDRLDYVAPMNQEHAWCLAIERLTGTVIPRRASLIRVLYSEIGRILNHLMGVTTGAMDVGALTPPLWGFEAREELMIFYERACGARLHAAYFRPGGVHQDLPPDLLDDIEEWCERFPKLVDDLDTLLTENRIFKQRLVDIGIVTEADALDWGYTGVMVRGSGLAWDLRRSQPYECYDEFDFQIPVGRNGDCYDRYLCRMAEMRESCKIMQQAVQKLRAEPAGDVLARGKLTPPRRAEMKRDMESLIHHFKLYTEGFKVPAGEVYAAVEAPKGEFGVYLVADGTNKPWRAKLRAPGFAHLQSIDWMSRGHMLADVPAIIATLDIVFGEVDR
T1 sequence (A1B487 whole entry): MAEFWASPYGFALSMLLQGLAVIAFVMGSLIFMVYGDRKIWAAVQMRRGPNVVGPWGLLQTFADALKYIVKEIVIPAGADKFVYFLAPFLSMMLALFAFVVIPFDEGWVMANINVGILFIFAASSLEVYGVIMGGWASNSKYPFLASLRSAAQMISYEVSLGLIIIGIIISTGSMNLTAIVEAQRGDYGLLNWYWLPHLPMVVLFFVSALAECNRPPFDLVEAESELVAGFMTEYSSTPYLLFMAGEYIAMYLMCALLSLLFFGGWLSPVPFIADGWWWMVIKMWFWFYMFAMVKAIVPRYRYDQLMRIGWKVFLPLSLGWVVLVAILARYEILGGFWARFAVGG

SMILES: COC1=C(OC)C(=O)C(C/C=C(\C)CC/C=C(\C)CC/C=C(\C)CC/C=C(\C)CC/C=C(\C)CC/C=C(\C)CC/C=C(\C)CC/C=C(\C)CC/C=C(\C)CCC=C(C)C)=C(C)C1=O [ubiquinone-10]
- cryo-EM structure of the complex, 2.3 Å: Density in the central polar region of the channel has been assigned to a partially inserted ubiquinone-10

— article PMC11522691, “Structure of the turnover-ready state of an ancestral respiratory complex I” (Nature Communications, 2024)
